PubChem BioAssay AID248 (DTP/NCI, 2004)
Values joined by “and” are separate entries in the source; they are usually repeats but may differ in a detail not shown here. Equal entries are not always repeated. Inconclusive results and toxic doses are left out. Cut-off read from the data, not from the text of the source: active = T/C of 150% or more; inactive = T/C below 125%.

Test system: L1210 leukemia ip in BDF1 mice, survival T/C
Experiment: NCI In Vivo Anticancer Drug Screen. Data for tumor model L1210 Leukemia (intraperitoneal) in B6D2F1 (BDF1) mice
Settings: endpoint: mean survival time, higher = longer survival
Outline: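 In this screen, tumor-bearing mice given compound are compared to those given vehicle, and their survival values are reported as a treated-to-control quotient.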

[1] = dose: 100.0 mg/kg/injection, schedule: Q01DX009 (ip), vehicle: saline
[2] = dose: 100.0 mg/kg/injection, schedule: Q04DX003 (ip), vehicle: saline
[3] = dose: 200.0 mg/kg/injection, schedule: Q01DX009 (ip), vehicle: saline
[4] = dose: 200.0 mg/kg/injection, schedule: Q04DX003 (ip), vehicle: saline
[5] = dose: 400.0 mg/kg/injection, schedule: Q04DX003 (ip), vehicle: saline
[6] = dose: 6.25 mg/kg/injection, schedule: Q01DX009 (ip), vehicle: saline with Tween-80
[7] = dose: 12.5 mg/kg/injection, schedule: Q01DX009 (ip), vehicle: saline with Tween-80
[8] = dose: 25.0 mg/kg/injection, schedule: Q01DX009 (ip), vehicle: saline with Tween-80
[9] = dose: 100.0 mg/kg/injection, schedule: Q04DX003 (ip), vehicle: saline with Tween-80
[10] = dose: 200.0 mg/kg/injection, schedule: Q04DX003 (ip), vehicle: saline with Tween-80
[11] = dose: 400.0 mg/kg/injection, schedule: Q04DX003 (ip), vehicle: saline with Tween-80
[12] = dose: 100.0 mg/kg/injection, schedule: Q01DX001 (ip), vehicle: saline with Tween-80
[13] = dose: 100.0 mg/kg/injection, schedule: Q01DX001 (ip), vehicle: saline
[14] = dose: 200.0 mg/kg/injection, schedule: Q01DX001 (ip), vehicle: saline
[15] = dose: 400.0 mg/kg/injection, schedule: Q01DX001 (ip), vehicle: saline
[16] = dose: 50.0 mg/kg/injection, schedule: Q01DX009 (ip), vehicle: Klucel (hydroxypropylcellulose) (HPC)
[17] = dose: 100.0 mg/kg/injection, schedule: Q01DX009 (ip), vehicle: Klucel (hydroxypropylcellulose) (HPC)
[18] = dose: 200.0 mg/kg/injection, schedule: Q01DX009 (ip), vehicle: Klucel (hydroxypropylcellulose) (HPC)
[19] = dose: 400.0 mg/kg/injection, schedule: Q01DX009 (ip), vehicle: Klucel (hydroxypropylcellulose) (HPC)
[20] = dose: 100.0 mg/kg/injection, schedule: Q04DX002 (ip), vehicle: Klucel (hydroxypropylcellulose) (HPC)
[21] = dose: 200.0 mg/kg/injection, schedule: Q04DX002 (ip), vehicle: Klucel (hydroxypropylcellulose) (HPC)
[22] = dose: 75.0 mg/kg/injection, schedule: Q01DX001 (ip), vehicle: other

Measured: T/C

O=C(Nc1cccc(C(=O)Nc2cc(C3=NCCN3)cc(C3=NCCN3)c2)c1)Nc1cccc(C(=O)Nc2cc(C3=NCCN3)cc(C3=NCCN3)c2)c1
inactive: dose: 15.0 mg/kg/injection, schedule: Q01DX Z (ip), vehicle: methylcellulose (MC) 109 % of control | dose: 30.0 mg/kg/injection, schedule: Q01DX Z (ip), vehicle: methylcellulose (MC) 105 % of control | dose: 60.0 mg/kg/injection, schedule: Q01DX Z (ip), vehicle: methylcellulose (MC) 96 % of control

NC(=O)CC(O)C(N)=O (centres undefined)
inactive: [1] 94 % of control | [2] 104 % of control | [3] 95 % of control | [4] 106 % of control | dose: 400.0 mg/kg/injection, schedule: Q01DX009 (ip), vehicle: saline 99 % of control | [5] 96 % of control

COc1ccc(C=NCCN=Cc2ccc(OC)cc2OC)c(OC)c1
inactive: [6] 97 % of control | dose: 6.25 mg/kg/injection, schedule: Q04DX003 (ip), vehicle: saline with Tween-80 98 % of control | [7] 87 % of control | dose: 12.5 mg/kg/injection, schedule: Q04DX003 (ip), vehicle: saline with Tween-80 91 % of control | [8] 87 % of control | dose: 25.0 mg/kg/injection, schedule: Q04DX003 (ip), vehicle: saline with Tween-80 95 % of control

c1ccc(Nc2nnc(Nc3ccccn3)c3ccccc23)nc1
inactive: [9] 95 % of control | [10] 93 % of control | [11] 96 % of control

O=C(O)C(CCl)(CCl)CCl
inactive: dose: 50.0 mg/kg/injection, schedule: Q01DX009 (ip), vehicle: saline 106 % of control | [1] 98 % of control | [3] 95 % of control

CC(C)(C1c2ccccc2NC(=O)c2ccccc21)[N+](=O)[O-] (centres undefined)
inactive: [9] 101 % of control | [10] 94 % of control

COC(=O)c1ccccc1C=O
inactive: [12] 102 % of control | dose: 200.0 mg/kg/injection, schedule: Q01DX001 (ip), vehicle: saline with Tween-80 107 % of control

CC(NC(=O)CNC(=O)c1cnc2ccccc2n1)C(=O)O (centres undefined)
inactive: [13] 100 % of control | [14] 101 % of control | [15] 94 % of control

COC1OCC(O)C(NC(=O)N(C)N=O)C1O (centres undefined)
inactive: dose: 6.25 mg/kg/injection, schedule: Q01DX009 (ip), vehicle: saline 117 % of control | dose: 12.5 mg/kg/injection, schedule: Q01DX009 (ip), vehicle: saline 118 % of control | dose: 16.5 mg/kg/injection, schedule: Q04DX003 (ip), vehicle: saline 108 % of control | dose: 27.3 mg/kg/injection, schedule: Q04DX003 (ip), vehicle: saline 112 % of control | dose: 33.0 mg/kg/injection, schedule: Q04DX003 (ip), vehicle: saline 118 % of control | [3] 92 % of control
active: dose: 25.0 mg/kg/injection, schedule: Q01DX009 (ip), vehicle: saline 150 % of control and 154 % of control | dose: 37.5 mg/kg/injection, schedule: Q01DX009 (ip), vehicle: citric acid 152 % of control | dose: 75.0 mg/kg/injection, schedule: Q01DX009 (ip), vehicle: citric acid 185 % of control | [1] 177 % of control and 224 % of control | dose: 150.0 mg/kg/injection, schedule: Q04DX003 (ip), vehicle: saline 167 % of control

SCCS
inactive: dose: 50.0 mg/kg/injection, schedule: Q04DX002 (ip), vehicle: saline with Tween-80 101 % of control | dose: 100.0 mg/kg/injection, schedule: Q04DX002 (ip), vehicle: saline with Tween-80 101 % of control | dose: 200.0 mg/kg/injection, schedule: Q04DX002 (ip), vehicle: saline with Tween-80 86 % of control

COC(=O)/C(=C1\C=C(c2ccccc2)C(=O)O1)c1ccccc1
inactive: dose: 25.0 mg/kg/injection, schedule: Q01DX009 (ip), vehicle: Klucel (hydroxypropylcellulose) (HPC) 98 % of control | [16] 103 % of control

COc1ccccc1NC(=O)NCCCCCCNC(=O)Nc1ccccc1OC
inactive: [17] 89 % of control | [18] 92 % of control | [19] 94 % of control

O=C(O)C1CC2CCC1CC2 (centres undefined)
inactive: [13] 104 % of control | [17] 100 % of control | [9] 92 % of control | [14] 93 % of control | [18] 92 % of control | [10] 95 % of control | [15] 100 % of control | [19] 92 % of control | [11] 101 % of control

CCS(=O)(=O)C1C2CCC(O2)C1S(=O)(=O)CC (centres undefined)
inactive: [20] 94 % of control | [21] 101 % of control | dose: 400.0 mg/kg/injection, schedule: Q04DX002 (ip), vehicle: Klucel (hydroxypropylcellulose) (HPC) 90 % of control

O=C1C(=C(C(F)(F)Cl)C(F)(F)Cl)C2CCC1C2 (centres undefined)
inactive: [6] 95 % of control | dose: 12.0 mg/kg/injection, schedule: Q01DX001 (ip), vehicle: saline with Tween-80 104 % of control | [7] 95 % of control | dose: 25.0 mg/kg/injection, schedule: Q01DX001 (ip), vehicle: saline with Tween-80 100 % of control | [8] 102 % of control and 92 % of control | dose: 50.0 mg/kg/injection, schedule: Q01DX001 (ip), vehicle: saline with Tween-80 100 % of control | dose: 50.0 mg/kg/injection, schedule: Q01DX009 (ip), vehicle: saline with Tween-80 107 % of control | [12] 91 % of control

CC(C)CC(C)(O)C(N)=O (centres undefined)
inactive: [2] 102 % of control | [4] 102 % of control | [5] 91 % of control

Nc1c(F)c(F)c(N)c(F)c1F
inactive: dose: 100.0 mg/kg/injection, schedule: Q01DX001 (ip), vehicle: acetone 93 % of control | dose: 400.0 mg/kg/injection, schedule: Q01DX001 (ip), vehicle: acetone 89 % of control

CC(C)CC(CC(C)C)NCC(C)OC(=O)c1ccc(N(C)C)cc1 (centres undefined)
inactive: [22] 101 % of control | dose: 150.0 mg/kg/injection, schedule: Q01DX001 (ip), vehicle: other 106 % of control

Cc1ccc(S(=O)(=O)N(CCCc2c(C)nc(N)[nH]c2=O)c2ccccc2)cc1
inactive: [16] 102 % of control | [17] 91 % of control | [18] 95 % of control

CC(C)(C)OC(=O)N/N=C1\CC2CCC1C2 (centres undefined)
inactive: dose: 100.0 mg/kg/injection, schedule: Q04DX003 (ip), vehicle: acetone 95 % of control

CC(C)N=Cc1ccccc1O.CC(C)N=Cc1ccccc1O.[Cu]
inactive: [22] 113 % of control

O=C1CC2CCCC(C1)N2CC1COc2ccccc2O1 (centres undefined)
inactive: dose: 50.0 mg/kg/injection, schedule: Q04DX002 (ip), vehicle: Klucel (hydroxypropylcellulose) (HPC) 90 % of control | [20] 90 % of control | [21] 93 % of control

CS(=O)(=O)O/C=C1/CCOC1=O
inactive: dose: 12.5 mg/kg/injection, schedule: Q01DX009 (ip), vehicle: water 105 % of control | dose: 25.0 mg/kg/injection, schedule: Q01DX009 (ip), vehicle: water 106 % of control
